# Measured values published in ChEMBL document CHEMBL1201862, “PubChem BioAssay data set” (2004).
#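 Growth conditions: 96-well plates. Treatment: test compound, 48 hours, 5 concentrations. Analysis: linear interpolation between bracketing concentrations; unreached endpoints set to highest concentration. GI50 = concentration required for 50% inhibition of growth.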 Calls of active or inactive are those of the source. No stated cut-off is given here; in the data, active = GI50 up to about 1.1 µM and inactive = higher.
# What was measured:
# Experiment in all cases: NCI-60 cell line screen, 48 h
# NCI-H522 = system: NCI-H522
# SR = system: SR
# SK-MEL-28 = system: SK-MEL-28
# UACC-62 = system: UACC-62
# SK-MEL-5 = system: SK-MEL-5
# OVCAR-4 = system: OVCAR-4
# MDA-MB-435 = system: MDA-MB-435
# Hs-578T = system: Hs-578T
# PC-3 = system: PC-3
# SF-295 = system: SF-295
# MDA-N = system: MDA-N
# UACC-257 = system: UACC-257
# SW-620 = system: SW-620
# OVCAR-3 = system: OVCAR-3
# EKVX = system: EKVX
# RPMI-8226 = system: RPMI-8226
# HCC 2998 = system: HCC 2998
# 786-0 = system: 786-0
# MDA-MB-231 = system: MDA-MB-231
# A549 = system: A549
# SK-MEL-2 = system: SK-MEL-2
# CCRF-CEM = system: CCRF-CEM
# NCI-H23 = system: NCI-H23
# SK-OV-3 = system: SK-OV-3
# HCT-15 = system: HCT-15
# LOX IMVI = system: LOX IMVI
# MCF7 = system: MCF7
# OVCAR-8 = system: OVCAR-8
# RXF 393 = system: RXF 393
# NCI-H226 = system: NCI-H226
# SNB-19 = system: SNB-19
# HCT-116 = system: HCT-116
# HL-60 = system: HL-60
# IGROV-1 = system: IGROV-1
# CAKI-1 = system: CAKI-1
# HOP-92 = system: HOP-92
# BT-549 = system: BT-549
# SF-539 = system: SF-539
# HT-29 = system: HT-29
# T47D = system: T47D
# SF-268 = system: SF-268
# M14 = system: M14
# SN12C = system: SN12C
# UO-31 = system: UO-31
# COLO 205 = system: COLO 205
# SNB-75 = system: SNB-75
# KM12 = system: KM12
# NCI/ADR-RES = system: NCI/ADR-RES
# Malme-3M = system: Malme-3M
# U-251 = system: U-251
# DU-145 = system: DU-145
# TK-10 = system: TK-10
# HOP-62 = system: HOP-62
# ACHN = system: ACHN
# OVCAR-5 = system: OVCAR-5
# MOLT-4 = system: MOLT-4
# K562 = system: K562
# A498 = system: A498
# NCI-H460 = system: NCI-H460
structure (smiles),measurement,setting,value
O=c1[nH]c2nc3ccccc3c(=O)n2/c1=C/c1ccccc1,GI50,NCI-H522,17.1 µM (inactive)
same,GI50,SR,> 100 µM (inactive)
same,GI50,SK-MEL-28,45.1 µM (inactive)
same,GI50,UACC-62,28.6 µM (inactive)
same,GI50,SK-MEL-5,48.9 µM (inactive)
same,GI50,OVCAR-4,> 100 µM (inactive)
same,GI50,MDA-MB-435,21.9 µM (inactive)
same,GI50,Hs-578T,29 µM (inactive)
same,GI50,PC-3,92 µM (inactive)
same,GI50,SF-295,> 100 µM (inactive)
same,GI50,MDA-N,25.6 µM (inactive)
same,GI50,UACC-257,23.7 µM (inactive)
same,GI50,SW-620,17.7 µM (inactive)
same,GI50,OVCAR-3,22 µM (inactive)
same,GI50,EKVX,35.3 µM (inactive)
same,GI50,RPMI-8226,34.9 µM (inactive)
same,GI50,HCC 2998,31 µM (inactive)
same,GI50,786-0,25.8 µM (inactive)
same,GI50,MDA-MB-231,> 100 µM (inactive)
same,GI50,A549,> 100 µM (inactive)
same,GI50,SK-MEL-2,> 100 µM (inactive)
same,GI50,CCRF-CEM,40.3 µM (inactive)
same,GI50,NCI-H23,30.3 µM (inactive)
same,GI50,SK-OV-3,> 100 µM (inactive)
same,GI50,HCT-15,29.8 µM
same,GI50,LOX IMVI,25.2 µM (inactive)
same,GI50,MCF7,44.2 µM (inactive)
same,GI50,OVCAR-8,28 µM (inactive)
same,GI50,RXF 393,55 µM (inactive)
same,GI50,NCI-H226,18.7 µM (inactive)
same,GI50,SNB-19,19.6 µM (inactive)
same,GI50,HCT-116,31.1 µM (inactive)
same,GI50,HL-60,56.1 µM (inactive)
same,GI50,IGROV-1,17.9 µM (inactive)
same,GI50,CAKI-1,47.4 µM (inactive)
same,GI50,HOP-92,20.7 µM (inactive)
same,GI50,BT-549,17.1 µM (inactive)
same,GI50,SF-539,22.5 µM (inactive)
same,GI50,HT-29,17.5 µM (inactive)
same,GI50,T47D,40.4 µM (inactive)
same,GI50,SF-268,20.6 µM (inactive)
same,GI50,M14,47.9 µM (inactive)
same,GI50,SN12C,25.1 µM (inactive)
same,GI50,UO-31,78 µM (inactive)
same,GI50,COLO 205,33.1 µM (inactive)
same,GI50,SNB-75,30.5 µM (inactive)
same,GI50,KM12,38.5 µM (inactive)
same,GI50,NCI/ADR-RES,43.6 µM (inactive)
same,GI50,Malme-3M,38.6 µM (inactive)
same,GI50,U-251,29.9 µM (inactive)
same,GI50,DU-145,29 µM (inactive)
same,GI50,TK-10,53.8 µM (inactive)
same,GI50,HOP-62,> 100 µM (inactive)
same,GI50,ACHN,47 µM (inactive)
same,GI50,OVCAR-5,> 100 µM (inactive)
same,GI50,MOLT-4,95.5 µM (inactive)
C=C1C(=O)OC2CCN3CC=C(COC(=O)C(C)(O)C4(CO4)C1C)C23 (centres undefined),GI50,NCI-H522,> 100 µM (inactive)
same,GI50,SR,> 100 µM (inactive)
same,GI50,SK-MEL-28,> 100 µM (inactive)
same,GI50,UACC-62,> 100 µM (inactive)
same,GI50,SK-MEL-5,> 100 µM (inactive)
same,GI50,OVCAR-4,> 100 µM (inactive)
same,GI50,MDA-MB-435,> 100 µM (inactive)
same,GI50,Hs-578T,> 100 µM (inactive)
same,GI50,PC-3,> 100 µM (inactive)
same,GI50,SF-295,> 100 µM (inactive)
same,GI50,MDA-N,> 100 µM (inactive)
same,GI50,UACC-257,> 100 µM (inactive)
same,GI50,SW-620,> 100 µM (inactive)
same,GI50,EKVX,> 100 µM (inactive)
same,GI50,HCC 2998,> 100 µM (inactive)
same,GI50,786-0,> 100 µM (inactive)
same,GI50,MDA-MB-231,> 100 µM (inactive)
same,GI50,A549,> 100 µM (inactive)
same,GI50,SK-MEL-2,> 100 µM (inactive)
same,GI50,CCRF-CEM,> 100 µM (inactive)
same,GI50,NCI-H23,> 100 µM (inactive)
same,GI50,SK-OV-3,> 100 µM (inactive)
same,GI50,HCT-15,> 100 µM
same,GI50,LOX IMVI,> 100 µM (inactive)
same,GI50,MCF7,> 100 µM (inactive)
same,GI50,OVCAR-8,> 100 µM (inactive)
same,GI50,RXF 393,> 100 µM (inactive)
same,GI50,NCI-H226,> 100 µM (inactive)
same,GI50,SNB-19,> 100 µM (inactive)
same,GI50,HCT-116,> 100 µM (inactive)
same,GI50,IGROV-1,> 100 µM (inactive)
same,GI50,CAKI-1,> 100 µM (inactive)
same,GI50,HOP-92,> 100 µM (inactive)
same,GI50,BT-549,> 100 µM (inactive)
same,GI50,HT-29,> 100 µM (inactive)
same,GI50,K562,> 100 µM (inactive)
same,GI50,T47D,> 100 µM (inactive)
same,GI50,SF-268,> 100 µM (inactive)
same,GI50,M14,> 100 µM (inactive)
same,GI50,SN12C,> 100 µM (inactive)
same,GI50,UO-31,> 100 µM (inactive)
same,GI50,COLO 205,> 100 µM (inactive)
same,GI50,A498,> 100 µM (inactive)
same,GI50,KM12,> 100 µM (inactive)
same,GI50,NCI/ADR-RES,> 100 µM (inactive)
same,GI50,Malme-3M,> 100 µM (inactive)
same,GI50,U-251,> 100 µM (inactive)
same,GI50,NCI-H460,> 100 µM (inactive)
same,GI50,DU-145,> 100 µM (inactive)
same,GI50,TK-10,> 100 µM (inactive)
same,GI50,ACHN,> 100 µM (inactive)
same,GI50,MOLT-4,> 100 µM (inactive)
COc1cc2c3cc1Oc1c(OC)c(OC)cc4c1C(Cc1ccc(O)c(c1)-c1cc(ccc1OC)CC3N(C)CC2)N(C)CC4 (centres undefined),GI50,NCI-H522,11.5 µM (inactive)
same,GI50,SR,0.659 µM (active)
same,GI50,SK-MEL-28,27 µM (inactive)
same,GI50,UACC-62,23.9 µM (inactive)
same,GI50,SK-MEL-5,14.8 µM (inactive)
same,GI50,OVCAR-4,29.4 µM (inactive)
same,GI50,MDA-MB-435,23.6 µM (inactive)
same,GI50,Hs-578T,21.3 µM (inactive)
same,GI50,PC-3,20.4 µM (inactive)
same,GI50,SF-295,16.5 µM (inactive)
same,GI50,MDA-N,13.6 µM (inactive)
same,GI50,UACC-257,21 µM (inactive)
same,GI50,SW-620,22.3 µM (inactive)
same,GI50,OVCAR-3,21.6 µM (inactive)
same,GI50,EKVX,25.6 µM (inactive)
same,GI50,HCC 2998,17.2 µM (inactive)
same,GI50,786-0,29 µM (inactive)
same,GI50,MDA-MB-231,13.3 µM (inactive)
same,GI50,A549,24.5 µM (inactive)
same,GI50,SK-MEL-2,19.5 µM (inactive)
same,GI50,NCI-H23,21.4 µM (inactive)
same,GI50,SK-OV-3,72.8 µM (inactive)
same,GI50,HCT-15,6.07 µM
same,GI50,LOX IMVI,4.8 µM (inactive)
same,GI50,MCF7,16.5 µM (inactive)
same,GI50,OVCAR-8,17.4 µM (inactive)
same,GI50,RXF 393,1.96 µM (inactive)
same,GI50,NCI-H226,40.6 µM (inactive)
same,GI50,SNB-19,22.3 µM (inactive)
same,GI50,HCT-116,12.3 µM (inactive)
same,GI50,HL-60,2.66 µM (inactive)
same,GI50,IGROV-1,22.1 µM (inactive)
same,GI50,CAKI-1,16.4 µM (inactive)
same,GI50,HOP-92,20.2 µM (inactive)
same,GI50,BT-549,19.7 µM (inactive)
same,GI50,SF-539,7.08 µM (inactive)
same,GI50,HT-29,6.92 µM (inactive)
same,GI50,K562,6 µM (inactive)
same,GI50,T47D,24.2 µM (inactive)
same,GI50,SF-268,19.1 µM (inactive)
same,GI50,M14,3.18 µM (inactive)
same,GI50,SN12C,15.6 µM (inactive)
same,GI50,UO-31,13.9 µM (inactive)
same,GI50,COLO 205,25.1 µM (inactive)
same,GI50,SNB-75,18.7 µM (inactive)
same,GI50,A498,23.2 µM (inactive)
same,GI50,KM12,17.5 µM (inactive)
same,GI50,NCI/ADR-RES,25.9 µM (inactive)
same,GI50,Malme-3M,18.2 µM (inactive)
same,GI50,U-251,28.1 µM (inactive)
same,GI50,NCI-H460,16 µM (inactive)
same,GI50,DU-145,50.8 µM (inactive)
same,GI50,TK-10,32.9 µM (inactive)
same,GI50,ACHN,15.8 µM (inactive)
same,GI50,OVCAR-5,44.8 µM (inactive)
same,GI50,MOLT-4,11.8 µM (inactive)
